No end group written: not given here.
How the values were obtained:
facial skin = assay: Nine-month long-term study 2 (stem cell homeostasis module peptides); assay type: in vivo, human; conditions: nine months; peptide tested with the other modules of TFC8-D; carrier in SEQ ID NO: 3 and 4 is PEG 35 kDa; sequence difference p-value <5%
[1] = clinical phase III (Gunter & MacHens, 2012); cited from earlier work

Molecule	frequency of reported product performance decline (comparison) (facial skin)	clinical outcome [1]
(Z1)-LNPSECPKTVLGAEYGKTLDASYSTAEAENHVRL (not fully specified (N-terminus); printed as (Z1)-LNPSECPKTVLGAEYGKTLDASYSTAEAENHVRL) [SEQ ID NO: 3, Z1 carrier at N-terminus; as tested a polyethyleneglycol with a molecular weight of 35 kDa]	lower for SEQ ID NO: 3 than for SEQ ID NO: 1	
LNPSECPKTVLGASTSTLDASYSTAEAENHVRL (peptide that stimulates the Wnt beta-catenin signaling pathway) [SEQ ID NO: 2, peptide that stimulates Wnt/β-catenin signalling]	more strongly associated with a decline in product performance during the study period than the sequence of SEQ ID NO: 1	
Z1-LNPSECPKTVLGASTSTLDASYSTAEAENHVRL (not fully specified (N-terminus); printed as Z1-LNPSECPKTVLGASTSTLDASYSTAEAENHVRL) [SEQ ID NO: 4, Z1 carrier at N-terminus; as tested a polyethyleneglycol with a molecular weight of 35 kDa]	lower for SEQ ID NO: 4 than for SEQ ID NO: 2	
Juvista: TGF beta 3 drug (protein, UniProt P10600 301-412, looked up, Transforming growth factor beta-3, TGF beta 3 drug) Transforming growth factor …: ALDTNYCFRNLEENCCVRPLYIDFRQDLGWKWVHEPKGYYANFCSGPCPYLRSADTTHSTVLGLYNTLNPEASASPCCVPQDLEPLTILYYVGRTPKVEQLSNMVVKSCKCS		failure of a clinical phase III study

— US20230135317A1, “COSMETIC FORMULATION FOR TOPICAL ADMINISTRATION COMPRISING NOVEL PEPTIDES THAT IMPROVE APPEARANCE AND REGENERATION OF SKIN” (ASC REGENITY LTD., priority 2020, published 2023)
